The text below walks through data of patent US6750244B2, “Compounds active at a novel site on receptor-operated calcium channels useful for treatment of neurological disorders and diseases” (NPS Pharmaceuticals, Inc., priority 1993, dated 2004).

Counter-ions that a name gives are not always drawn. Marks after values point to notes of the source that are not given here.

The subject of one test is NMDA receptor. In words: Inhibition of NMDA/glycine-induced increases in intracellular calcium in cultured rat cerebellar granule cells (RCGC). To be noted: NMDA/glycine-induced increases in intracellular calcium, cultured rat cerebellar granule cells; read-out: IC50 (μM) vs. NMDA. It counts as cell-based.
Test [1] deals with NMDA receptor-ionophore complex (site labeled by [3H]MK-801). In words: Inhibition of [3H]MK-801 binding in rat cortical/hippocampal washed membrane preparations. The following applies: for IC50: read-out: IC50 (μM) vs. [3H]MK-801, rat cortical/hippocampal washed membranes.

Take `CCC(N)CC(c1cccc(F)c1)c1cccc(F)c1` (stereo not drawn) [Compound 23, 3,3-bis(3-fluorophenyl)-1-ethyl-1-propylamine]: the results for the IC50 (in the test on NMDA receptor; in test [1]) were 0.267 µM and 5.4 µM, respectively.

Regarding `NCCC1c2ccccc2Oc2ccccc21` [Compound 182], the IC50 was 2.6 µM in the test with NMDA receptor and 7.05 µM in test [1].

In the case of `CCC(NCCC(c1ccccc1)c1ccccc1)c1ccc(Cl)cc1` (stereo not drawn) [Compound 160], the IC50 in the test with NMDA receptor is 7.35 µM; in test [1] it was 48.9 µM.

On to `NCCCOCCCCOCCCNC(=O)Cc1c[nH]c2ccc(Br)cc12` [Compound 16], for which the figures for the half-inhibitory concentration (IC50) (in the test with NMDA receptor; in test [1]) were 5.1 µM and 28.8 µM, respectively.

On to `NCCC1c2ccccc2Sc2ccccc21` [Compound 183], for which the figures for the IC50 (in the test with NMDA receptor; in test [1]) were 0.676 µM and 5.01 µM, respectively.

Turning to `COc1ccc(F)cc1C(CCN)c1cccc(F)c1` (stereo not drawn) [Compound 61, 3-(3-fluorophenyl)-3-(3-fluoro-6-methoxyphenyl)-1-propylamine], the IC50 with NMDA receptor came out at 0.134 µM; in test [1], 0.324 µM.

As to `N=C(N)NCCCC(N)C(=O)NCCCNCCCNCCCCCNC(=O)C(CC(N)=O)NC(=O)Cc1ccccc1O` (stereo not drawn) [Compound 10], the IC50 in the test on NMDA receptor came to 0.082 µM. For the same compound, the “% inhibition of [3H]MK-801 binding at the stated concentration (IC50 study incomplete)” value in test [1] (at 80 μM) is reported as “(57% at 80 μM)^d”.

As to `Fc1cccc(C(=C2CCNCC2)c2cccc(F)c2)c1` [Compound 110], the IC50 was 42.7 µM in the test on NMDA receptor and 13.3 µM in test [1].

As to `CCC(NCCC(c1ccccc1)c1ccccc1)c1cccc(Br)c1` (stereo not drawn) [Compound 161], the IC50 in the test on NMDA receptor worked out at 0.247 µM; in test [1], 5.62 µM.

`C[C@H](C(c1ccccc1)c1ccccc1)[C@@H](C)N` [Compound 86]: the figures for the IC50 (with NMDA receptor; in test [1]) were 1.2 µM and 6 µM, respectively.

As for `CC(N)C(C)C(c1cccc(F)c1)c1cccc(F)c1` (stereo not drawn) [Compound 38, 3,3-bis(3-fluorophenyl)-1,2-dimethyl-1-propylamine], the values for the IC50 (in the test on NMDA receptor; in test [1]) were 0.407 µM and 2.3 µM, respectively.

In the case of `CNCCC(c1ccccc1)c1ccccc1` [Compound 67, N-methyl-3,3-diphenylpropylamine], the concentration for half-maximal inhibition (IC50) in the test on NMDA receptor is 11 µM; in test [1], 2.9 µM.

Take `NCCC(c1cccc(F)c1)c1cccc(Cl)c1` (stereo not drawn) [Compound 30, 3-(3-fluorophenyl)-3-(3-chlorophenyl)-1-propylamine]: the IC50 with NMDA receptor came to 0.035 µM; in test [1] it was 0.407 µM.

For the compound `CCC(CC)(CN)C(c1cccc(F)c1)c1cccc(F)c1` [Compound 80, 3,3-bis(3-fluorophenyl)-2,2-diethyl-1-propylamine], the IC50 with NMDA receptor came to 28 µM; in test [1] it was 182 µM.

Take `CCC(CCN)(c1cccc(F)c1)c1cccc(F)c1` [Compound 82, 3,3-bis(3-fluorophenyl)-3-ethyl-1-propylamine]: the IC50 with NMDA receptor was 0.106 µM; in test [1], 0.794 µM.

For the compound `COc1ccccc1CC(=O)NC(CC(N)=O)C(=O)NCCCCCNCCCNCCCNC(=O)C(N)CCCCN` (stereo not drawn) [Compound 8], the IC50 came out at 0.099 µM with NMDA receptor and 219 µM in test [1].

For `COc1ccc(C(CCN)c2cccc(F)c2)cc1F` (racemic) [Compound 173, (R,S)-3-(3-Fluoro-4-methoxy)-3-(3-fluorophenyl)propylamine maleate], the IC50 with NMDA receptor was 22.9 µM; in test [1] it was 24.1 µM.

Consider `Cc1ccccc1C(CCN)c1cccc(F)c1` (stereo not drawn) [Compound 27, 3-(3-fluorophenyl)-3-(2-methylphenyl)-1-propylamine], for which the IC50 in the test on NMDA receptor worked out at 0.071 µM; in test [1], 0.18 µM.

Turning to `CCC(CN)C(c1cccc(F)c1)c1cccc(F)c1` (stereo not drawn) [Compound 55, 3,3-bis(3-fluorophenyl)-2-ethyl-1-propylamine], the IC50 was 0.035 µM in the test on NMDA receptor and 0.153 µM in test [1].

Consider `NCCC(c1cccc(O)c1)c1cccc(F)c1` (stereo not drawn) [Compound 101], for which the 50% inhibitory concentration (IC50) in the test on NMDA receptor came out at 0.912 µM; in test [1], 2 µM.

Regarding `CCC(NCCC(c1ccccc1)c1ccccc1)c1cccc(Cl)c1` (stereo not drawn) [Compound 159], the IC50 with NMDA receptor was 0.185 µM; in test [1], 10.4 µM.
